Test system: human umbilical vein endothelial cells (HUVEC)
Experiment: Tube formation of HUVEC grown with Matrigel
Assay type: cell-based
Conditions: for Area of the tube: 50 μM compound in DMSO, DMSO control 88; for Area of the tube %: DMSO control = 100; for inhibition at 50 µM: Homo sapiens, HUVEC, read-out: percent inhibition of the tube formation
Method: In order to do the tube formation assay, blood vessel endothelial cells, that Is, human umbilical vein endothellal cells (HUVECs), were isolated. HUVECs were isolated from freshly obtained cords after cesarean section, and they were grown and identified by immunocytochemial staining with anti-Factor Vil antibody. HUVECs grown with Matrigel (BD Bioscience, Bedford, Mass., USA), were treated with 0.4 μg/μl of the above Ginkgo biloba leaf extract (Hwa II Pharmaceutical Co., LTD, Korea) of the EXAMPLE 1, and further incubated at 37° C. for […]. As a control, the procedure was repeated without Ginkgo biloba leaf extract.
The area of the tube was determined by the image analysis program Image-Pro Plus (Media Cybernetics, USA), and as summarized in Table I, tube formation after treatment of Ginkgo biloba leaf extract was inhibited by about 60% as compared with the untreated control.
Representative compounds from Ginkgo biloba, quercetin (Sigma Cat No. Q0125) and kaempferol (Indofine Chemical Cat No. K-102) as flavonoids, amentoflavon (Indofine Chemical Cat No. 021101S) as a biflavonoid and ginkolide A (Sigma Cat No. G4028) as a terpene-lactone, were subjected to the tube formation assay as described in EXAMPLE 1.
Since the above chemicals are not soluble in water, they were dissolved on dimethyl sulfoxide (DMSO), and in order to exclude the effect of solvent for these compounds, HUVECs treated with the same amount of DMSO were used as a control. FIG. 6 is a picture of the 1% DMSO-treated HUVEC control, and FIGS. 7-10 are pictures showing the effect on tube formation of individual compounds (quercetin, kaempferol, amentoflavon, and ginlkolide A, respectively). At 50 μM concentration, the order of inhibitory effect on HUVEC tube formation was quercetin>kaempferol>amentoflavon>ginkgolide A. Ginkgolide A was not effective even at 1 mM concentration.
Therefore, not biflavonoids but flavonoids such as quercetin and kaempferol, are the major component for angiogenesis inhibition in Ginkgo biloba leaf extract.

[1] = 50 μM compound, versus DMSO control

| Structure (SMILES) | Area of the tube | percent inhibition of the tube formation [1] | Area of the tube % (50 μM compound) | effect on HUVEC tube formation (1 mM concentration) | inhibition at 50 µM [1] |
| --- | --- | --- | --- | --- | --- |
| O=c1cc(-c2ccc(O)c(-c3c(O)cc(O)c4c(=O)cc(-c5ccc(O)cc5)oc34)c2)oc2cc(O)cc(O)c12 [Amentoflavon, amentoflavon] | 48 | 45 | 55% | – | – |
| C[C@@H]1C(=O)O[C@H]2C[C@@]34[C@H]5C[C@@H](C(C)(C)C)[C@]36[C@@H](OC(=O)[C@@H]6O)O[C@@]4(C(=O)O5)[C@]21O [Ginkgolide A, ginkolide A] | – | – | – | not effective | – |
| O=c1c(O)c(-c2ccc(O)cc2)oc2cc(O)cc(O)c12 [Kaempferol, kaempferol] | 24 | – | 27% | – | 73% |
| O=c1c(O)c(-c2ccc(O)c(O)c2)oc2cc(O)cc(O)c12 [Quercetin, quercetin] | 6.6 | – | 7.5% | – | 93% |
